Experimental data taken from patent publication US20150056205A1, “STEROID SPARING AGENTS AND METHODS OF USING SAME” (BIOGEN IDEC MA INC., priority 2004, published 2015).

How the values were obtained:
[1] = system: pregnant cynomolgus monkeys; experiment: follow-up reproductive toxicity study; format: in vivo, cynomolgus monkey; conditions: two in the control
Description: (§1) In mice, there is evidence that α4 integrin and VCAM-1 play a role in placental and cardiac development, and they may also play a wider role in fetal development. There is, therefore, a risk of an abortifacient effect or teratogenicity if α4 integrin is blocked by natalizumab. A preliminary reproductive toxicity study exposed groups of five pregnant cynomolgus monkeys to repeated intravenous doses of 0.06, 0.3, or 30 mg/kg natalizumab. One of five pregnant females in the 30 mg/kg group aborted at Day 31 of gestation after receiving five doses of natalizumab. Because the overall rate of abortion fell within the rate of spontaneous abortion in this species, the event was not believed to be related to natalizumab. An ongoing follow-up reproductive toxicity study has exposed groups of 10 to 15 pregnant cynomolgus monkeys to repeated intravenous doses of 3, 10, or 30 mg/kg. Embryo deaths have occurred at similar rates in all treatment groups: two in the control, one in the 3 mg/kg, two in the 10 mg/kg and two in the 30 mg/kg groups respectively. As a precaution, women of childbearing potential must utilize effective contraception throughout the duration of the study and for at least 3 months after the last infusion of study drug, and must have a negative pregnancy test at the time of each natalizumab dosing.

[2] = system: subjects with active ulcerative colitis; experiment: open-label single infusion study in active ulcerative colitis; format: in vivo; conditions: for mean PTAI score: 9.7 at Week 0
Description: Another earlier study was an open-label safety, tolerability, and efficacy study of a single infusion of 3 mg/kg intravenous natalizumab in male and female subjects with active ulcerative colitis.

[3] = system: subjects diagnosed with chronic active Crohn's disease; experiment: placebo-controlled single infusion study in chronic active Crohn's disease; format: in vivo
Description: Earlier studies in Crohn's disease and ulcerative colitis are summarized below. One study was a randomized, double-blind, placebo-controlled, safety, tolerability, and efficacy study of a single infusion of intravenous 3 mg/kg natalizumab in male and female subjects diagnosed with chronic active Crohn's disease. Thirty subjects were enrolled; 18 were treated with natalizumab (3 mg/kg) and 12 with placebo.

primates = conditions: in vivo
Description: The inflammation was characterized by increased numbers of lymphocytes and plasma cells within the lamina propia with occasional crypt abscesses.

guinea pig EAE = experiment: guinea pig Experimental Allergic Encephalitis (EAE) model; format: in vivo
Description: The initial dose of natalizumab selected for clinical evaluation was based on non-clinical studies in the guinea pig Experimental Allergic Encephalitis (EAE) model. […] A single dose of 3 mg/kg appeared to provide serum concentrations of natalizumab associated with α4 integrin receptor blockade for up to approximately 3 weeks, and 6 mg/kg for about 6 weeks.

[4] = system: subjects with Crohn's disease; experiment: Phase III maintenance of response and remission study in Crohn's disease (Example 9, second study); format: in vivo, human
Description: A double-blind, placebo-controlled study of the efficacy, safety, and tolerability of intravenous Tysabri (natalizumab, 300 mg monthly) in maintaining clinical response and remission in patients with Crohn's Disease (CD) was performed. The objectives were to compare the ability of natalizumab versus placebo to maintain a clinical response in subjects with CD, to compare the ability of natalizumab versus placebo to maintain a clinical remission in subjects with CD, to compare the effects of natalizumab versus placebo on quality of life as measured by the Inflammatory Bowel Disease Questionnaire (IBDQ), and to compare the ability of natalizumab versus placebo to allow subjects to achieve withdrawal of oral steroids.
A Phase III, international, multicenter, randomized, double-blind, placebo-controlled, parallel-group study of subjects with previously active Crohn's disease (CD) (defined as moderately to severely active, CDAI≧220, <450) who have responded to treatment at Week 10 and maintained that response out to Week 12 in a first study (defined as a ≧70 point decrease in baseline CDAI) and whose disease is mildly active (defined as a CDAI score of <220) was undertaken.
Within this group there was a sub-population who had achieved remission (defined as a CDAI score of <150) at Week 10 of the first study. […] Subjects receiving concomitant medications for their CD were permitted to enroll providing that doses remained stable throughout their participation in the first study. All concomitant medications for CD remained stable for the duration of the 12-month treatment phase (up to Month 15) with the exception of oral steroids which were reduced according to a fixed algorithm). At the time this application was filed, only 9 months of data was available.
Natalizumab was administered 300 mg monthly for 12 infusions. The placebo was administered monthly for 12 infusions. Subjects were stratified according to their disease status (remission versus no remission, i.e., a CDAI<150 or ≧150), concomitant use of oral steroids and concomitant use of immunosuppressants.
Once randomized, subjects received their first infusion. Thereafter, they returned to the clinic on a monthly basis (where 1 month is defined as a 4-week period) for assessment and infusion. Introduction of any new medication for CD or a dose change to an existing concomitant medication for CD (with the exception of oral steroids withdrawn according to the fixed algorithm) […] unless deemed necessary for purposes of rescue intervention. Once rescued, such a subject was considered a treatment failure.
Eligible subjects at Week 10 in the first study were consented and enrolled into the second study, in order to allow subjects taking concomitant oral steroids to begin a steroid taper. Subjects who continued to meet the eligibility criteria at Week 12/Month 3, i.e., in time for their next, monthly infusion, were re-randomized and entered the treatment phase which will last up to 12 months in duration (i.e., up to Month 15). Subjects were male or female, eighteen years of age or older.
All subjects receiving oral steroids were required to undergo a taper immediately upon entry into the second study using the following algorithm. Subjects on doses equivalent to >10 mg of prednisolone will begin their taper at a rate of 5 mg every 7 days until they reach a dose of 10 mg. Subjects on doses equivalent to 10 mg of prednisolone were tapered at a rate of 2.5 mg every 7 days until they are completely withdrawn. Subjects taking budesonide were tapered at a rate of 3 mg every 3 weeks.
The ability of natalizumab to maintain mildly active disease (defined as a CDAI score of <220 and no use of rescue intervention) and remission (defined as a CDAI score of <150 and no use of rescue intervention) in subjects with CD was assessed. […]

[5] = system: pregnant cynomolgus monkeys; experiment: preliminary reproductive toxicity study; format: in vivo; conditions: 30 mg/kg group, repeated intravenous doses, Day 31 of gestation after five doses
Description: as §1

Substance: natalizumab
- embryo deaths ([1]; 3 mg/kg repeated intravenous doses): one
- embryo deaths ([1]; 10 mg/kg repeated intravenous doses): two
- embryo deaths ([1]; 30 mg/kg repeated intravenous doses): two
- mean PTAI score ([2]; 1 week post-treatment): 6.9
- subjects with good clinical response (PTAI score ≦5) ([2]; 2 and 4 weeks after single 3 mg/kg infusion, ten subjects): 50%
- mean PTAI score ([2]; 2 weeks post-treatment): 5.7
- mean PTAI score ([2]; 4 weeks post-treatment): 4.9
- subjects who received no rescue medication ([2]; between Weeks 0 and 4): Seventy percent
- adverse events considered related to study drug ([2]; of the 30 adverse events reported): 3
- subjects reporting a serious adverse event ([2]; ten subjects, single 3 mg/kg): Three
- mean CDAI scores compared to mean baseline ([3]; 2 and 4 weeks post-treatment, single 3 mg/kg): significantly decreased
- subjects requiring rescue therapy ([3]; Week 2 post-treatment, single 3 mg/kg, placebo 33%): 11%
- subjects withdrawn because of an adverse event ([3]; single 3 mg/kg): No subjects
- subjects reporting one serious adverse event ([3]; single 3 mg/kg, 18 treated): Six
- safety and tolerability ([3]; single intravenous dose of 3 mg/kg, subjects with CD): safe and well tolerated
- subjects in clinical remission (CDAI<150) ([3]; two weeks after single 3 mg/kg intravenous infusion, placebo 8%): 39%
- treated animals with minimal to mild lymphoplasmacytic inflammation of the mucosa of the cecum, colon, and/or rectum (primates): about half
- signs and symptoms of EAE (guinea pig EAE; dose of 3 mg/kg): significant delay in onset and a reversal of the signs and symptoms of EAE
- signs and symptoms of EAE (guinea pig EAE; lower doses than 3 mg/kg): not effective
- patients of the remission population who maintained a response (remission) ([4]; after 9 months, natalizumab remission population at three months, placebo 25.8%): 43.8%
- patients who maintained a response ([4]; after 9 months, natalizumab responder population at three months, placebo 28.8%): 61.3%
- Remission and not taking steroids, number (%) of subjects ([4]; month 9, of those who took steroids at first study baseline, 300 mg monthly, placebo 17 (22%)): 31 (46%)
- Not taking steroids, number (%) of subjects ([4]; month 9, of those who took steroids at first study baseline, 300 mg monthly, placebo 19 (25%)): 37 (55%)
- serious adverse events (SAEs) ([4]; placebo 8%): 7%
- tapering off steroids ([4]; second study): enabled subjects to be successfully tapered off steroids
- pregnant females that aborted [5]: One of five
